We go through three molecules from PubChem BioAssay (NCI).

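Growth conditions: 96-well plates. Treatment: test compound, 48 hours, 5 concentrations. Analysis: linear interpolation between bracketing concentrations; unreached endpoints set to highest concentration. TGI denotes the concentration required for complete inhibition of growth.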

Test systems include CAKI-1 renal; COLO 205 colon; DLD-1 colon; DMS 114 small cell lung; DMS 273 small cell lung; HCC-2998 colon; HCT-116 colon; HOP-18 NSCLC; KM20L2 colon; M19-MEL melanoma; MCF7 breast; P388 leukemia; P388/ADR leukemia; SK-OV-3 ovarian; SN12K1 renal; SNB-78 CNS; XF 498 CNS; MDA-N; SR leukemia; TK-10 renal.
Common to all, as to assay: NCI tumour cell line growth inhibition, 48 h

In the case of `c1cc2c3c(c1)c1cc4c(cc1c[n+]3CC2)OCO4`, the TGI worked out at 120 µM in the assay on CAKI-1 renal; 19.9 µM in the assay on COLO 205 colon; 121 µM with DLD-1 colon; 9.27 µM in the assay with DMS 114 small cell lung; 30.5 µM in the assay with DMS 273 small cell lung; 10.4 µM in the assay with HCC-2998 colon. For the same molecule, the TGI in the assay with HCT-116 colon amounted to 75.9 µM; with HOP-18 NSCLC, 88.4 µM; with KM20L2 colon, 49.7 µM; in the assay with M19-MEL melanoma, 5.21 µM; with MCF7 breast, 30.3 µM; with P388 leukemia, 4.22 µM. Moreover, the TGI in the assay on P388/ADR leukemia was more than 225 µM; with SK-OV-3 ovarian it was 97.2 µM; in the assay on SN12K1 renal, 12.2 µM; in the assay with SNB-78 CNS, 47.1 µM; with XF 498 CNS, 10.9 µM.
With `c1ccc2c(c1)c1ccccc1n2Cn1c2ccccc2c2ccccc21`, the TGI with CAKI-1 renal, in the assay with MDA-N, in the assay on SR leukemia and with TK-10 renal was more than 100 µM each time.
With `COc1cc(-c2ccc(N=Nc3ccc4c(S(=O)(=O)O)cc(S(=O)(=O)O)c(N)c4c3O)c(OC)c2)ccc1N=Nc1ccc2c(S(=O)(=O)O)cc(S(=O)(=O)O)c(N)c2c1O`, the TGI in the assay with COLO 205 colon, with DLD-1 colon, in the assay on DMS 114 small cell lung, in the assay with DMS 273 small cell lung, with HCC-2998 colon and with HCT-116 colon was more than 100 µM throughout. In addition, the TGI was 98.1 µM in the assay with HOP-18 NSCLC; more than 100 µM in the assay on KM20L2 colon; more than 100 µM in the assay on M19-MEL melanoma; more than 100 µM in the assay with MCF7 breast; more than 100 µM in the assay on P388 leukemia; more than 100 µM in the assay on P388/ADR leukemia. Besides, the TGI in the assay on SK-OV-3 ovarian, in the assay with SN12K1 renal, with SNB-78 CNS and in the assay on XF 498 CNS was more than 100 µM throughout.
